pIC50: −log10 of the molar value.
What was measured:
[1] = molecular target: T1, Melanin-concentrating hormone receptor 1 (Homo sapiens, UniProt Q99705); test: Displacement of [125I]MCH from MCHr1 expressed in IMR32 cells; type: cell-based, IMR-32
[2] = molecular target: T1, Melanin-concentrating hormone receptor 1; test: Antagonist activity at MCHr1 assessed as inhibition of MCH-mediated calcium ion release in intact IMR32 cells by FLIPR assay; type: functional, cell-based, IMR-32
Rattus norvegicus [3] = test: Drug level in anesthetized Sprague-Dawley rat plasma; type: ADME, organism-based; details: in vivo
Rattus norvegicus [4] = test: Drug level in anesthetized Sprague-Dawley rat brain; type: ADME, organism-based; details: in vivo
[5] = Cmax in C57BL/6J DIO mouse plasma at 10 mg/kg, po; type: ADME, organism-based; parameters: dose 10 mg/kg, route oral
[6] = Half life in C57BL/6J DIO mouse plasma at 10 mg/kg, po; type: ADME, organism-based; parameters: dose 10 mg/kg, route oral
[7] = AUC in C57BL/6J DIO mouse plasma at 10 mg/kg, po; type: ADME, organism-based; parameters: dose 10 mg/kg, route oral
[8] = Cmax in C57BL/6J DIO mouse brain at 10 mg/kg, po; type: ADME, organism-based; parameters: dose 10 mg/kg, route oral
[9] = Half life in C57BL/6J DIO mouse brain at 10 mg/kg, po; type: ADME, organism-based; parameters: dose 10 mg/kg, route oral
Mus musculus [10] = test: AUC in C57BL/6J DIO mouse brain at 10 mg/kg, po; type: ADME, organism-based; parameters: dose 10 mg/kg, route oral; details: in vivo
[11] = Ratio of AUC in brain to plasma of C57BL/6J DIO mouse at 10 mg/kg, po; type: ADME, organism-based; parameters: dose 10 mg/kg, route oral; details: brain and plasma, read-out: Ratio AUC
Mus musculus [12] = test: Decrease in body weight of C57BL/6J DIO mouse at 3 mg/kg, po after 22 days relative to control; type: functional; parameters: scale not given: the % may be the effect or the level left
Mus musculus [13] = test: Decrease in body weight of C57BL/6J DIO mouse at 10 mg/kg, po after 22 days relative to control; type: functional; parameters: scale not given: the % may be the effect or the level left
[14] = Drug level in C57BL/6J DIO mouse plasma at 3 mg/kg, po after 22 days; type: ADME, organism-based; parameters: dose 3 mg/kg, route oral
[15] = Drug level in C57BL/6J DIO mouse plasma at 10 mg/kg, po after 22 days; type: ADME, organism-based; parameters: dose 10 mg/kg, route oral
[16] = Drug level in C57BL/6J DIO mouse brain at 3 mg/kg, po after 22 days; type: ADME, organism-based; parameters: dose 3 mg/kg, route oral; details: read-out: Drug uptake
[17] = Drug level in C57BL/6J DIO mouse brain at 10 mg/kg, po after 22 days; type: ADME, organism-based; parameters: dose 10 mg/kg, route oral; details: read-out: Drug uptake
[18] = Drug level in anasthetized Beagle dog plasma at 3 mg/kg, iv after 30 mins; type: ADME, organism-based, Canis lupus familiaris; parameters: dose 3 mg/kg, route intravenous
[19] = Drug level in anasthetized Beagle dog plasma at 10 mg/kg, iv after 30 mins; type: ADME, organism-based, Canis lupus familiaris; parameters: dose 10 mg/kg, route intravenous
[20] = Drug level in anasthetized Beagle dog plasma at 30 mg/kg, iv after 30 mins; type: ADME, organism-based, Canis lupus familiaris; parameters: dose 30 mg/kg, route intravenous
Canis familiaris [21] = species: Canis familiaris; test: Decrease in heart rate in anasthetized Beagle dog at 10.94 ug/ml relative to control; type: functional, Canis lupus familiaris; parameters: scale not given: the % may be the effect or the level left
Canis familiaris [22] = species: Canis familiaris; test: Decrease in heart rate in anasthetized Beagle dog at 36.13 ug/ml relative to control; type: functional, Canis lupus familiaris; parameters: scale not given: the % may be the effect or the level left
Rattus norvegicus [23] = test: Decrease in heart rate in anesthetized Sprague-Dawley rat at 100 mg/kg; type: functional; parameters: scale not given: the % may be the effect or the level left
Rattus norvegicus [24] = test: Decrease in mean arterial pressure in anesthetized Sprague-Dawley rat at 60 mg/kg; type: functional, Artery; parameters: scale not given: the % may be the effect or the level left

T1 sequence (Q99705 whole entry): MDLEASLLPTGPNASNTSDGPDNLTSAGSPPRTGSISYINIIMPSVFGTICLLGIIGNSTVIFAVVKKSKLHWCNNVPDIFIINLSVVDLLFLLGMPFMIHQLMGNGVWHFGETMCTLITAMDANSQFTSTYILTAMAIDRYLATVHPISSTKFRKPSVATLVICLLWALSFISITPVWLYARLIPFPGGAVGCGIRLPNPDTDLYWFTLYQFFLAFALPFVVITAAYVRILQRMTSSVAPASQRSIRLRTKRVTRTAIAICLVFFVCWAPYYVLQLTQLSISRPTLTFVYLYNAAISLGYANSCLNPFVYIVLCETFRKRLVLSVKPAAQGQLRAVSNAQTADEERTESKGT

pIC50 [1]	pIC50 [2]	Structure (SMILES)	also measured
8.70	7.17	Cc1c(C(=O)NC2CCN(Cc3ccc4c(c3)OCO4)CC2)oc2cc(Cl)ccc2c1=O	
7.41	6.24	CC(=O)c1ccc(CN2CCC(NC(=O)c3cc(=O)c4ccc(F)cc4o3)CC2)cc1	
7.51	6.41	COc1cccc(CN2CCC(NC(=O)c3cc(=O)c4ccc(F)cc4o3)CC2)c1	
7.19	6.71	O=C(NC1CCN(Cc2ccc3c(c2)OCO3)CC1)c1cc(=O)c2cc(F)ccc2o1	
7.18	6.72	O=C(NC1CCN(Cc2ccc3c(c2)OCO3)CC1)c1cc(=O)c2ccccc2o1	
7.89	7.00	COc1ccc(CN2CCC(NC(=O)c3cc(=O)c4ccc(F)cc4o3)CC2)cc1	
	7.08	O=C(NC1CCN(Cc2ccc3c(c2)OCO3)CC1)c1cc(=O)c2cc(Cl)c(Cl)cc2o1	Cp (Rattus norvegicus [3]): 0.02 mg/mL; Drug uptake (Rattus norvegicus [4]): 63 µg/g; Activity (Rattus norvegicus [23]): 10%; Cmax ([5]; read-out: Cmax): 33 ng/mL; half-life [6]: 54 min; AUC [7]: 39 ng·h/mL; AUC (Mus musculus [10]): 0 ng·h/g
6.41		Cc1ccc2oc(C(=O)NC3CCN(Cc4ccc5c(c4)OCO5)CC3)cc(=O)c2c1	
7.23	6.28	CCc1ccc2c(=O)cc(C(=O)NC3CCN(Cc4ccc5c(c4)OCO5)CC3)oc2c1	
6.73	< 5.22	O=C(NC1CCN(Cc2ccc3c(c2)OCO3)CC1)c1cc(=O)c2cc(Br)ccc2o1	
5.77	< 5.00	CC(=O)Nc1ccc(CN2CCC(NC(=O)c3cc(=O)c4ccc(F)cc4o3)CC2)cc1	
8.70	7.89	O=C(NC1CCN(Cc2ccc3c(c2)OCO3)CC1)c1cc(=O)c2cc(F)c(F)cc2o1	Cp (Rattus norvegicus [3]): 0.034 mg/mL; Drug uptake (Rattus norvegicus [4]): 25 µg/g; Activity (Rattus norvegicus [24]): >15%
6.37		COc1ccc(CN2CCC(NC(=O)c3cc(=O)c4ccc(F)cc4o3)CC2)cc1OC	

More lines, now with the values behind:

Structure (SMILES)	pIC50 [1]	pIC50 [2]	also measured
O=C(NC1CCN(Cc2ccc3c(c2)OCO3)CC1)c1cc(=O)c2ccc(F)cc2o1			Cp (Rattus norvegicus [3]): 0.062 mg/mL; Drug uptake (Rattus norvegicus [4]): 126 µg/g; Cmax ([5]; read-out: Cp): 1780 ng/mL; half-life [6]: 150 min; AUC [7]: 9290 ng·h/mL; Cmax [8]: 4370 ng/g; half-life [9]: 144 min; AUC (Mus musculus [10]): 12658 ng·h/g; Kp [11]: 1.4; Activity (Mus musculus [12]): 0%; Activity (Mus musculus [13]): 7%; concentration at 528 h [14]: 840 ng/mL; concentration at 528 h [15]: 3270 ng/mL; concentration at 528 h [16]: 1110 ng/g; concentration at 528 h [17]: 4670 ng/g; concentration at 0.5 h [18]: 5.9 µM; concentration at 0.5 h [19]: 25.8 µM; concentration at 0.5 h [20]: 85.1 µM; Activity (Canis familiaris [21]): 22%; Activity (Canis familiaris [22]): 11%
O=C(NC1CCN(Cc2ccc3c(c2)OCO3)CC1)c1cc(=O)c2cc(Cl)ccc2o1	6.13	5.69	
O=C(NC1CCN(Cc2ccc(F)cc2)CC1)c1cc(=O)c2ccc(F)cc2o1	6.80	6.10	
N#Cc1ccc2c(=O)cc(C(=O)NC3CCN(Cc4ccc5c(c4)OCO5)CC3)oc2c1	7.33	6.86	
O=C(NC1CCN(Cc2ccc3c(c2)OCO3)CC1)c1cc(=O)c2cc(C(F)(F)F)ccc2o1	6.45		
O=C(NC1CCN(Cc2ccc3c(c2)OCO3)CC1)c1cc(=O)c2ccc(Br)cc2o1	7.49	7.09	
O=C(NC1CCN(Cc2ccccc2)CC1)c1cc(=O)c2ccc(F)cc2o1	7.22	6.23	
COc1ccc2c(=O)cc(C(=O)NC3CCCN(Cc4ccc5c(c4)OCO5)C3)oc2c1 (configuration not stated)	< 5.70		
O=C(NC1CCN(Cc2cccc3c2OCO3)CC1)c1cc(=O)c2ccc(F)cc2o1	< 6.15		
COc1ccc2c(=O)cc(C(=O)N3CCN(Cc4ccc5c(c4)OCO5)CC3)oc2c1	< 5.70		

— ChEMBL document CHEMBL1137327, “Optimization of chromone-2-carboxamide melanin concentrating hormone receptor 1 antagonists: assessment of potency, efficacy, and cardiovascular safety” (J Med Chem, 2006)
